In ChEMBL document CHEMBL3397009, “Synthesis and biological evaluation of aryl isoxazole derivatives as metabotropic glutamate receptor 1 antagonists: a potential treatment for neuropathic pain” (Bioorg Med Chem Lett, 2015) one finds inhibition data, which are given here for 12 molecules.

For the first assay, the target named is Metabotropic glutamate receptor 1 (Homo sapiens) (UniProt Q13255). In words: Antagonist activity against human mGluR1 expressed in HEK cells assessed as inhibition of L-glutamate-induced intracellular calcium levels at 1 uM after 18 hrs. It counts as functional, cell-based. Conditions: HEK293. A general note: A change in cytosolic calcium serves as a functional read-out for many receptors and channels.
Chain of Metabotropic glutamate receptor 1 (Homo sapiens) (Q13255 19-1194 limits assumed): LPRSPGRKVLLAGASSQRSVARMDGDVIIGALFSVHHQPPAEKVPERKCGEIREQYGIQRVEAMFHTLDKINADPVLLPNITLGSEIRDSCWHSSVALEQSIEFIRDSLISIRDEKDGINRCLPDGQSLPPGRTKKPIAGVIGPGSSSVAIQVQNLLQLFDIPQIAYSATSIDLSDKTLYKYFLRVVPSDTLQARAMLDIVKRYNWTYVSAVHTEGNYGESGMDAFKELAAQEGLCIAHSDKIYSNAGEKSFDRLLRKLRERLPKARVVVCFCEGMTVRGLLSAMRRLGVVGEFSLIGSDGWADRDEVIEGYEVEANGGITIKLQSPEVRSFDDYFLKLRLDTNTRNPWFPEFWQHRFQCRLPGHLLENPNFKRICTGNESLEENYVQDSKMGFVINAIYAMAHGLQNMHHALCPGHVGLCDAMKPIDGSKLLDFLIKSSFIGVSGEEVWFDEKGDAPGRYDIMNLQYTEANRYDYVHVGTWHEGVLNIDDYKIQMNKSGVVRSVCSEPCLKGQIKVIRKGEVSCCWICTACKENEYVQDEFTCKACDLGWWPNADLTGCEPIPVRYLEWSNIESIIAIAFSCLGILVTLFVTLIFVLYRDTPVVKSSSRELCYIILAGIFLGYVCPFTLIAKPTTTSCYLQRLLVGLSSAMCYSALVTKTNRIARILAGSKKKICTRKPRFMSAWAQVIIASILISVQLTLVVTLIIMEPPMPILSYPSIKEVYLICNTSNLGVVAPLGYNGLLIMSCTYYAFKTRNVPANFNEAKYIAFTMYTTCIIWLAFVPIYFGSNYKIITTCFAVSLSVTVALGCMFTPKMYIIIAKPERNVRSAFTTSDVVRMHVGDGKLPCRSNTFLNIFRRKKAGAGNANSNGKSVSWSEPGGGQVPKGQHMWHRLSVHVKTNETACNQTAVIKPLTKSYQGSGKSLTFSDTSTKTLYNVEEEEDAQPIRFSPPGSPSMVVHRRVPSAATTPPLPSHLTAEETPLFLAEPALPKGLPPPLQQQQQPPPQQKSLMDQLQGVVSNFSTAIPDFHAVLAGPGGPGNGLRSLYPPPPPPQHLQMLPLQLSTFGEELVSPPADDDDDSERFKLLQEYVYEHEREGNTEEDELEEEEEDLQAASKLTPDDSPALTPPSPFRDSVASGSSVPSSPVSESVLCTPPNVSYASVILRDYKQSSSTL
Consider `CC(C)N1Cc2cc(-c3cc(-c4cccnc4F)no3)ccc2C1=O`, for which the inhibition is 23.4%.
On the same count and under the same terms, the same measure for `CC(C)N1C(=O)c2ccc(-c3cc(-c4ccc(Cl)cc4)no3)cc21`: 16.4%; for `Cc1c(-c2ccc(F)cc2)noc1-c1ccc2c(c1)CN(C(C)C)C2=O`: 38.4%.
Take `Cc1ccc(-c2cc(-c3ccc4c(c3)CN(C(C)C)C4=O)on2)cc1`: the inhibition worked out at 37.4%.
The same measure, in the same setting: the same measure for `CC(C)N1Cc2cc(-c3cc(-c4ccc(F)cc4F)no3)ccc2C1=O`: 39.8%.
As for `COc1ccc(-c2noc(-c3ccc4c(c3)CN(C(C)C)C4=O)c2C)cn1`, the inhibition is 49.1%.
Same read-out and setting: the same measure for `Cc1c(-c2ccc(Cl)nc2)noc1-c1ccc2c(c1)CN(C(C)C)C2=O`: 47.1%.
For the molecule `COc1ccc(-c2cc(-c3ccc4c(c3)N(C(C)C)C4=O)on2)cc1`, the inhibition amounted to 11.3%.
As for `Cc1c(-c2ccc(Cl)cc2)noc1-c1ccc2c(c1)CN(C(C)C)C2=O`, the inhibition is 30.7%.
Still for that read-out and setting: as for `CC(C)N1C(=O)c2ccc(-c3cc(-c4ccc(F)cc4)no3)cc21`, the figure is 12.8%; as for `CC(C)N1C(=O)c2ccc(-c3cc(-c4ccc(Cl)nc4)no3)cc21`, 12.3%; as for `COc1ccc(-c2cc(-c3ccc4c(c3)CN(C(C)C)C4=O)on2)cc1`, 41%.

For the next assay the target is unchanged. The experiment in a line: Antagonist activity against human mGluR1 expressed in HEK cells assessed as inhibition of L-glutamate-induced intracellular calcium levels at 10 uM after 18 hrs. It counts as functional, cell-based. Conditions: HEK293.
Take `CC(C)N1Cc2cc(-c3cc(-c4cccnc4F)no3)ccc2C1=O`: the inhibition is 42.3%.
On to `CC(C)N1C(=O)c2ccc(-c3cc(-c4ccc(Cl)cc4)no3)cc21`, for which the inhibition was 33.9%.
Take `Cc1c(-c2ccc(F)cc2)noc1-c1ccc2c(c1)CN(C(C)C)C2=O`: the inhibition was 62.8%.
`Cc1ccc(-c2cc(-c3ccc4c(c3)CN(C(C)C)C4=O)on2)cc1`: the inhibition was 25.1%.
On the same count and under the same terms, as for `CC(C)N1Cc2cc(-c3cc(-c4ccc(F)cc4F)no3)ccc2C1=O`, the figure is 36.5%.
On the same count and under the same terms, the same measure for `COc1ccc(-c2noc(-c3ccc4c(c3)CN(C(C)C)C4=O)c2C)cn1`: 46.5%; for `Cc1c(-c2ccc(Cl)nc2)noc1-c1ccc2c(c1)CN(C(C)C)C2=O`: 56.9%.
Same read-out and setting: the same measure for `COc1ccc(-c2cc(-c3ccc4c(c3)N(C(C)C)C4=O)on2)cc1`: 2.44%.
With `Cc1c(-c2ccc(Cl)cc2)noc1-c1ccc2c(c1)CN(C(C)C)C2=O`, the inhibition is 61.6%.
Same read-out and setting: the same measure for `CC(C)N1C(=O)c2ccc(-c3cc(-c4ccc(F)cc4)no3)cc21`: 50.4%.
For the molecule `CC(C)N1C(=O)c2ccc(-c3cc(-c4ccc(Cl)nc4)no3)cc21`, the inhibition was 7.77%.
On to `COc1ccc(-c2cc(-c3ccc4c(c3)CN(C(C)C)C4=O)on2)cc1`, for which the inhibition was found to be 35.1%.

For the next assay, the target named is Metabotropic glutamate receptor 5 (Homo sapiens) (UniProt P41594). In words: Antagonist activity against human mGluR5 expressed in HEK cells assessed as inhibition of L-glutamate-induced intracellular calcium levels at 10 uM after 18 hrs. It counts as functional, cell-based. Conditions: HEK293.
Chain of Metabotropic glutamate receptor 5 (Homo sapiens) (P41594 21-1212 limits assumed): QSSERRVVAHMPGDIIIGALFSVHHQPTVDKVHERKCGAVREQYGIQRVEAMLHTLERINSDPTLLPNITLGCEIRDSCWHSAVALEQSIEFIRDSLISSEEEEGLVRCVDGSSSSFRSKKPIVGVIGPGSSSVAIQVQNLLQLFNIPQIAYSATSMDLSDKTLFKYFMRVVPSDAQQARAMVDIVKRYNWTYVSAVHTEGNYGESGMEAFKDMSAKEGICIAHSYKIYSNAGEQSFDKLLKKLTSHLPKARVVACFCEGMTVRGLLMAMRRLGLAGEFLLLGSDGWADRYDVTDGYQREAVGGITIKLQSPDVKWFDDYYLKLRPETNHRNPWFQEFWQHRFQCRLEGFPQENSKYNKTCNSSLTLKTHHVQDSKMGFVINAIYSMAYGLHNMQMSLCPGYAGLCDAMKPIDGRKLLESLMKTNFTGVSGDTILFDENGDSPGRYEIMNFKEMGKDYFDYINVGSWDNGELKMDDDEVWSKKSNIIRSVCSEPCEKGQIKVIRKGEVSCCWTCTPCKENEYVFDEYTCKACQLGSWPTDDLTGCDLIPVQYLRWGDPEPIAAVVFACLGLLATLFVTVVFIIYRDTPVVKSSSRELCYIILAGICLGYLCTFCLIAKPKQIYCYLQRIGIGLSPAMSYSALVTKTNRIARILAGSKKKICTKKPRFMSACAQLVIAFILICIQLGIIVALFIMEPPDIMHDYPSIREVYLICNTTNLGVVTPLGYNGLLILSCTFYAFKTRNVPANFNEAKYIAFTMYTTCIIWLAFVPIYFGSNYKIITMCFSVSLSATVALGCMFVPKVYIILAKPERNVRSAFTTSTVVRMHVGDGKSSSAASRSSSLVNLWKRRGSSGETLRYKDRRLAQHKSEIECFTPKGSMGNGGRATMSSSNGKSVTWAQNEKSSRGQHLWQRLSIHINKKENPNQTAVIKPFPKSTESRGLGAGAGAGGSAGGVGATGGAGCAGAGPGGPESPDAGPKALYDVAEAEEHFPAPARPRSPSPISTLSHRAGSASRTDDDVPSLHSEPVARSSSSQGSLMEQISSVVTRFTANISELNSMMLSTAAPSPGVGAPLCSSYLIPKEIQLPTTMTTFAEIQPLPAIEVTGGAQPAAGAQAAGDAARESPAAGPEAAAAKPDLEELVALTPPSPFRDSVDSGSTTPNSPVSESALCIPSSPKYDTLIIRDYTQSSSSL
As to `CC(C)N1C(=O)c2ccc(-c3cc(-c4ccc(Cl)cc4)no3)cc21`, the inhibition was 10.3%.
Take `Cc1c(-c2ccc(F)cc2)noc1-c1ccc2c(c1)CN(C(C)C)C2=O`: the inhibition came out at 18.7%.
Still for that read-out and setting: as for `Cc1ccc(-c2cc(-c3ccc4c(c3)CN(C(C)C)C4=O)on2)cc1`, the figure is 15%; as for `CC(C)N1Cc2cc(-c3cc(-c4ccc(F)cc4F)no3)ccc2C1=O`, 13.4%; as for `COc1ccc(-c2noc(-c3ccc4c(c3)CN(C(C)C)C4=O)c2C)cn1`, 30.8%.
Turning to `Cc1c(-c2ccc(Cl)nc2)noc1-c1ccc2c(c1)CN(C(C)C)C2=O`, the inhibition was found to be 26.3%.
Same read-out and setting: the same measure for `COc1ccc(-c2cc(-c3ccc4c(c3)N(C(C)C)C4=O)on2)cc1`: 15.9%; for `Cc1c(-c2ccc(Cl)cc2)noc1-c1ccc2c(c1)CN(C(C)C)C2=O`: 23.4%.
Turning to `CC(C)N1C(=O)c2ccc(-c3cc(-c4ccc(F)cc4)no3)cc21`, the inhibition was determined as 34%.
On the same count and under the same terms, as for `CC(C)N1C(=O)c2ccc(-c3cc(-c4ccc(Cl)nc4)no3)cc21`, the figure is 10.1%; as for `COc1ccc(-c2cc(-c3ccc4c(c3)CN(C(C)C)C4=O)on2)cc1`, 15.1%.

The next assay shares this target. In words: Antagonist activity against human mGluR5 expressed in HEK cells assessed as inhibition of L-glutamate-induced intracellular calcium levels at 1 uM after 18 hrs. It counts as functional, cell-based. Conditions: HEK293.
Take `CC(C)N1C(=O)c2ccc(-c3cc(-c4ccc(Cl)cc4)no3)cc21`: the inhibition was 12.2%.
For `Cc1c(-c2ccc(F)cc2)noc1-c1ccc2c(c1)CN(C(C)C)C2=O`, the inhibition was determined as 8.16%.
On the same count and under the same terms, as for `Cc1ccc(-c2cc(-c3ccc4c(c3)CN(C(C)C)C4=O)on2)cc1`, the figure is 21.8%.
For the molecule `CC(C)N1Cc2cc(-c3cc(-c4ccc(F)cc4F)no3)ccc2C1=O`, the inhibition came out at 17.7%.
Same read-out and setting: as for `COc1ccc(-c2noc(-c3ccc4c(c3)CN(C(C)C)C4=O)c2C)cn1`, the figure is 33.5%.
Same read-out and setting: as for `Cc1c(-c2ccc(Cl)nc2)noc1-c1ccc2c(c1)CN(C(C)C)C2=O`, the figure is 22.2%; as for `COc1ccc(-c2cc(-c3ccc4c(c3)N(C(C)C)C4=O)on2)cc1`, 13.6%; as for `Cc1c(-c2ccc(Cl)cc2)noc1-c1ccc2c(c1)CN(C(C)C)C2=O`, 11.7%.
On the same count and under the same terms, the same measure for `CC(C)N1C(=O)c2ccc(-c3cc(-c4ccc(F)cc4)no3)cc21`: 1.82%; for `CC(C)N1C(=O)c2ccc(-c3cc(-c4ccc(Cl)nc4)no3)cc21`: 16.1%; for `COc1ccc(-c2cc(-c3ccc4c(c3)CN(C(C)C)C4=O)on2)cc1`: 15.4%.

As usually defined, the inhibition is the drop in the measured response relative to a control, in per cent.
